From paper PMC11502502 (Nature cancer, 2024)
Values joined by “and” are separate entries in the source; they are usually repeats but may differ in a detail not shown here. Equal values may be shown once. Read-outs that look alike come from different tables or passages of the source. Values belong to the compound of their own block, whether it stands above or below them.

How the values were obtained:
[1] = test system: JJN-3; assay: CellTiter-Glo cell viability, JJN-3; format: cell-based; conditions: Homo sapiens, JJN-3, 72 h
[2] = Protein-binding assay with equilibrium dialysis in cell culture medium; format: in vitro ADME; conditions: bovine, cell culture medium with 10% fetal calf serum
[3] = test system: RPMI 8226; assay: CellTiter-Glo cell viability, RPMI 8226; format: cell-based; conditions: Homo sapiens, RPMI-8226, 72 h
[4] = test system: KMS-12-PE; assay: CellTiter-Glo cell viability, KMS-12-PE; format: cell-based; conditions: Homo sapiens, 72 h
[5] = test system: A-427; assay: CellTiter-Glo cell viability, A-427; format: cell-based; conditions: Homo sapiens, A-427, 72 h
[6] = test system: DMS114; assay: CellTiter-Glo cell viability, DMS114; format: cell-based; conditions: Homo sapiens, DMS-114, 72 h
[7] = test system: MOLP-8; assay: CellTiter-Glo cell viability, MOLP-8; format: cell-based; conditions: Homo sapiens, MOLP-8, 72 h
[8] = test system: SU-DHL-10; assay: CellTiter-Glo cell viability, SU-DHL-10; format: cell-based; conditions: Homo sapiens, SU-DHL10, 72 h
[9] = test system: OPM-2; assay: CellTiter-Glo cell viability, OPM-2; format: cell-based; conditions: Homo sapiens, OPM-2, 72 h
[10] = test system: HCC-2157; assay: CellTiter-Glo cell viability, HCC-2157; format: cell-based; conditions: Homo sapiens, HCC2157, 72 h
[11] = test system: HMC1–8; assay: CellTiter-Glo cell viability, HMC1–8; format: cell-based; conditions: Homo sapiens, 72 h
[12] = test system: A-431; assay: CellTiter-Glo cell viability, A-431; format: cell-based; conditions: Homo sapiens, A-431, 72 h
[13] = test system: SNU398; assay: CellTiter-Glo cell viability, SNU398; format: cell-based; conditions: Homo sapiens, SNU-398, 72 h
[14] = test system: KMS-12-BM; assay: CellTiter-Glo cell viability, KMS-12-BM; format: cell-based; conditions: Homo sapiens, 72 h
[15] = test system: SNU-16; assay: CellTiter-Glo cell viability, SNU-16; format: cell-based; conditions: Homo sapiens, SNU-16, 72 h
[16] = test system: SU-DHL-5; assay: CellTiter-Glo cell viability, SU-DHL-5; format: cell-based; conditions: Homo sapiens, SU-DHL-5, 72 h
[17] = test system: PA-1; assay: CellTiter-Glo cell viability, PA-1; format: cell-based; conditions: Homo sapiens, PA-1, 72 h
[18] = test system: NCI-H82; assay: CellTiter-Glo cell viability, NCI-H82; format: cell-based; conditions: Homo sapiens, NCI-H82, 72 h
[19] = test system: AMO-1; assay: CellTiter-Glo cell viability, AMO-1; format: cell-based; conditions: Homo sapiens, AMO1, 72 h
[20] = test system: HCC-1187; assay: CellTiter-Glo cell viability, HCC-1187; format: cell-based; conditions: Homo sapiens, HCC1187, 72 h
[21] = test system: hiPS cell-derived cardiomyocytes; assay: hiPS cell-derived cardiomyocytes: extracellular LDH; format: cell-based, human; conditions: 1 μM, 72 h
[22] = test system: hiPS cell-derived cardiomyocytes; assay: hiPS cell-derived cardiomyocytes: activation of caspases 3 and 7; format: cell-based, human; conditions: 1 μM, 72 h
[23] = test system: hiPS cell-derived cardiomyocytes; assay: hiPS cell-derived cardiomyocytes: cell viability (ATP levels, cell titer glow)
[24] = test system: hiPS cell-derived cardiomyocytes; assay: hiPS cell-derived cardiomyocytes: DAPI-stained number of nuclei; format: cell-based, human
[25] = test system: hiPS cell-derived cardiomyocytes; assay: hiPS cell-derived cardiomyocytes: extracellular troponin I (AlphaLISA); format: cell-based, human
[26] = read-out: Anti-proliferative IC50
[27] = read-out: Antiproliferative IC50u

- fraction unbound [2]: 0.01
- IC50 [8, 26]: 87 nM
- IC50 [8, 27]: 0.9 nM
- IC50 [10, 26]: 262 nM
- IC50 [10, 27]: 2.7 nM
- IC50 [12, 26]: 641 nM
- IC50 [12, 27]: 6.6 nM
- IC50 [13, 26]: 495 nM
- IC50 [13, 27]: 5.1 nM
- IC50 [15, 26]: 583 nM
- IC50 [15, 27]: 6 nM
- IC50 [16, 26]: 117 nM
- IC50 [16, 27]: 1.2 nM
- IC50 [18, 26]: 476 nM
- IC50 [18, 27]: 4.9 nM
- IC50 [20, 26]: 330 nM
- IC50 [20, 27]: 3.4 nM
SMILES: CO[C@H]1/C=C/C[C@H](C)[C@@H](C)S(=O)(=O)NC(=O)c2ccc3c(c2)N(C[C@@H]2CC[C@H]21)C[C@@]1(CCCc2cc(Cl)ccc21)CO3 [AMG176]
- IC50 [1, 26]: 553 nM
- IC50 [1, 27]: 5.7 nM
- IC50 [3, 26]: 291 nM
- IC50 [3, 27]: 3 nM
- IC50 [4, 26]: 1160 nM
- IC50 [4, 27]: 12 nM
- IC50 [5, 26]: 563 nM
- IC50 [5, 27]: 5.8 nM
- IC50 [6, 26]: 282 nM
- IC50 [6, 27]: 2.9 nM
- IC50 [7, 26]: 223 nM
- IC50 [7, 27]: 2.3 nM
- IC50 [9, 26]: 117 nM
- IC50 [9, 27]: 1.2 nM
- IC50 [11, 26]: 583 nM
- IC50 [11, 27]: 6 nM
- IC50 [14, 26]: 184 nM
- IC50 [14, 27]: 1.9 nM
- IC50 [17, 26]: 631 nM
- IC50 [17, 27]: 6.5 nM
- IC50 [19, 26]: 126 nM
- IC50 [19, 27]: 1.3 nM

- fraction unbound [2]: 0.021
- IC50 [10, 26]: 95 nM
- IC50 [10, 27]: 2 nM
- IC50 [12, 26]: 219 nM
- IC50 [12, 27]: 4.6 nM
- IC50 [13, 26]: 52 nM
- IC50 [13, 27]: 1.1 nM
- IC50 [15, 26]: 267 nM
- IC50 [15, 27]: 5.6 nM
- IC50 [16, 26]: 14 nM
- IC50 [16, 27]: 0.3 nM
- IC50 [18, 26]: 162 nM
- IC50 [18, 27]: 3.4 nM
- IC50 [20, 26]: 52 nM
- IC50 [20, 27]: 1.1 nM
SMILES: Cc1c2c(nn1C)CSCc1cc(n(C)n1)CSc1cc(c3ccccc3c1)OCCCc1c(C(=O)O)n(C)c3c-2c(Cl)ccc13 [AZD5991]
- IC50 [1, 26]: 71 nM
- IC50 [1, 27]: 1.5 nM
- IC50 [3, 26]: 62 nM
- IC50 [3, 27]: 1.3 nM
- IC50 [4, 26]: 210 nM
- IC50 [4, 27]: 4.4 nM
- IC50 [5, 26]: 52 nM
- IC50 [5, 27]: 1.1 nM
- IC50 [6, 26]: 71 nM
- IC50 [6, 27]: 1.5 nM
- IC50 [7, 26]: 38 nM
- IC50 [7, 27]: 0.8 nM
- IC50 [9, 26]: 33 nM
- IC50 [9, 27]: 0.7 nM
- IC50 [11, 26]: 329 nM
- IC50 [11, 27]: 6.9 nM
- IC50 [14, 26]: 33 nM
- IC50 [14, 27]: 0.7 nM
- IC50 [17, 26]: 105 nM
- IC50 [17, 27]: 2.2 nM
- IC50 [19, 26]: 57 nM
- IC50 [19, 27]: 1.2 nM

- LDH release [21]: increased LDH release
- Caspase 3 activation [22]: time-dependent activation of caspase 3
- Nuclear counts ([24]; 1 μM, 72 h): decreased nuclear counts
- DAPI stained number of nuclei ([24]; Doxorubicin - wash, 3h): 0.4105 and 0.3857 and 0.4592
- DAPI stained number of nuclei ([24]; Doxorubicin - wash, 6h): 0.9721 and 0.9984 and 0.8453
- DAPI stained number of nuclei ([24]; Doxorubicin - wash, 24h): 0.5586 and 0.4572 and 0.5102
- DAPI stained number of nuclei ([24]; Doxorubicin - wash, 48h): 0.8181 and 0.8435 and 0.8812
- DAPI stained number of nuclei ([24]; Doxorubicin - wash, 72h): 0.2447 and 0.2247 and 0.2518
- DAPI stained number of nuclei ([24]; Doxorubicin, 3h): 0.3508 and 0.3671 and 0.4582
- DAPI stained number of nuclei ([24]; Doxorubicin, 6h): 0.9886 and 0.9511 and 0.985
- DAPI stained number of nuclei ([24]; Doxorubicin, 24h): 0.3141 and 0.2601 and 0.2627
- DAPI stained number of nuclei ([24]; Doxorubicin, 48h): 0.2344 and 0.4107 and 0.4046
- Extracellular troponin I ([25]; Doxorubicin - wash, 48h): 5.76 and 7.195 and 6.893
- Extracellular troponin I ([25]; Doxorubicin - wash, 72h): 12.7295 and 11.4567 and 13.7321
- Extracellular troponin I ([25]; Doxorubicin, 3h): 0.7061 and 0.6741 and 0.6927
- Extracellular troponin I ([25]; Doxorubicin, 6h): 2.491 and 1.893 and 3.419
- Extracellular troponin I ([25]; Doxorubicin, 48h): 9.842 and 16.5962 and 13.2372
- Extracellular troponin I ([25]; Doxorubicin, 72h): 30.5761 and 27.6931 and 29.1909
SMILES: COc1cccc2c1C(=O)c1c(O)c3c(c(O)c1C2=O)C[C@@](O)(C(=O)CO)C[C@@H]3O[C@H]1C[C@H](N)[C@H](O)[C@H](C)O1 [doxorubicin]
- ATP levels ([23]; 1 μM, 72 h): reduced ATP levels
- Cell viability via cell titer glow ([23]; Doxorubicin - wash, 3h): 0.9604 and 0.941 and 0.9405
- Cell viability via cell titer glow ([23]; Doxorubicin - wash, 6h): 0.9905 and 0.9749 and 0.9586
- Cell viability via cell titer glow ([23]; Doxorubicin - wash, 24h): 0.9393 and 0.938 and 0.976
- Cell viability via cell titer glow ([23]; Doxorubicin - wash, 48h): 0.6883 and 0.7253 and 0.7219
- Cell viability via cell titer glow ([23]; Doxorubicin - wash, 72h): 0.5187 and 0.5467 and 0.5116
- Cell viability via cell titer glow ([23]; Doxorubicin, 3h): 0.9456 and 0.9453 and 0.963
- Cell viability via cell titer glow ([23]; Doxorubicin, 6h): 0.9853 and 1.049 and 1.001
- Cell viability via cell titer glow ([23]; Doxorubicin, 24h): 0.9003 and 0.8578 and 0.8897
- Cell viability via cell titer glow ([23]; Doxorubicin, 48h): 0.5823 and 0.6777 and 0.6323
- Cell viability via cell titer glow ([23]; Doxorubicin, 72h): 0.4355 and 0.3955 and 0.4606
